Reference: ChEMBL document CHEMBL6121036, “Evaluation of Cereblon-Directing Warheads for the Development of Orally Bioavailable PROTACs” (J Med Chem, 2025)
In brackets after ≈: the same amount, converted by molar mass. Activity calls are given as the source filed them. No cut-off for these calls is given here.

Key:
[1] = Effect on CCND3 level in human MV4-11 cells assessed as fold change at 100 nM measured after 4 hrs; type: functional
[2] = Effect on CDC42EP3 level in human MV4-11 cells assessed as fold change at 100 nM measured after 4 hrs; type: functional
[3] = molecular target: T1, Protein cereblon/Bromodomain-containing protein 2 (Homo sapiens) (UniProt P25440+Q96SW2); assay: PROTAC activity at CRBN/Hibit-tagged CRISPR BRD2 (unknown origin) expressed in HEK293 cells coexpressing LgBiT assessed as degradation of BRD2 by […] glo-max assay relative to control; type: cell-based
[4] = molecular target: T2, Protein cereblon/Bromodomain-containing protein 3 (Homo sapiens) (UniProt Q15059+Q96SW2); assay: PROTAC activity at CRBN/Hibit-tagged CRISPR BRD3 (unknown origin) expressed in HEK293 cells co-expressing LgBiT assessed as degradation of BRD3 measured after 13 to 16 hrs by […] glo-max assay; type: cell-based; details: time 13-16 hrs
[5] = molecular target: T3, Protein cereblon/Bromodomain-containing protein 4 (Homo sapiens, UniProt O60885+Q96SW2); assay: PROTAC activity at CRBN/Hibit-tagged BRD4 (unknown origin) expressed in HEK293 cells co-expressing LgBiT assessed as degradation of BRD4 incubated for 24 hrs by […] glo-max assay; type: cell-based
[6] = AUC last in female CD1 mouse at 10 mg/kg, po measured upto 24 hrs by LC-MS/MS analysis; type: ADME, organism-based; details: in vivo
[7] = Effect on FYTTD1 level in human MV4-11 cells assessed as fold change at 100 nM measured after 4 hrs; type: functional
[8] = Metabolic stability in mouse liver microsomes assessed as half life; type: ADME, Microsome; details: liver microsomes
[9] = molecular target: T3, Protein cereblon/Bromodomain-containing protein 4; assay: PROTAC activity at CRBN/Hibit-tagged CRISPR BRD4 (unknown origin) expressed in HEK293 cells co-expressing LgBiT assessed as degradation of BRD4 by […] glo-max assay relative to control; type: cell-based
[10] = test system: MV4-11; assay: Cytotoxicity against human MV4-11 cells assessed as reduction in cell viability incubated for 72 hrs by cell-titer glo assay; type: functional, cell-based; details: MV4-11, 72 h
[11] = molecular target: T2, Protein cereblon/Bromodomain-containing protein 3 (Homo sapiens); assay: PROTAC activity at CRBN/Hibit-tagged CRISPR BRD3 (unknown origin) expressed in HEK293 cells co-expressing LgBiT assessed as degradation of BRD3 by […] glo-max assay relative to control; type: cell-based
[12] = Effect on TP53 level in human MV4-11 cells assessed as fold change at 100 nM measured after 4 hrs; type: functional
[13] = Effect on FGL2 level in human MV4-11 cells assessed as fold change at 100 nM measured after 4 hrs; type: functional
[14] = Permeability in MDCK-II cells incubated for 1 hr by UPLC/MS/UV analysis; type: ADME, cell-based, Canis lupus familiaris; details: dog, read-out: permeability
[15] = Effect on MYC level in human MV4-11 cells assessed as fold change at 100 nM measured after 4 hrs; type: functional
[16] = molecular target: T1, Protein cereblon/Bromodomain-containing protein 2 (Homo sapiens); assay: PROTAC activity at CRBN/Hibit-tagged CRISPR BRD2 (unknown origin) expressed in HEK293 cells coexpressing LgBiT assessed as degradation of BRD2 by […] glo-max assay; type: cell-based
[17] = Downregulation of BRD2 protein level in human MV4-11 cells at 100 nM incubated for 4 hrs relative to control; type: functional
[18] = test system: HEK293; assay: Cytotoxicity against HEK293 cells expressing LgBiT fused HiBiT-BRD2 measured after 24 hrs by cell titer-glo assay; type: toxicity, cell-based; details: human, hek293, 24 h
[19] = molecular target: Protein cereblon/Bromodomain-containing protein 4/DNA damage-binding protein 1 (Homo sapiens) (UniProt O60885+Q96SW2+Q16531); assay: Binding affinity to his-tagged CRBN/DDB1/GST-tagged BRD4 (49 to 170 residues)(unknown origin) assessed as ternary complex formation (AUC) incubated for 1 hr by luminescence based Alphascreen assay; type: protein assay
[20] = Downregulation of BRD3 protein level in human MV4-11 cells at 100 nM incubated for 4 hrs relative to control; type: functional
[21] = Effect on AURKA level in human MV4-11 cells assessed as fold change at 100 nM measured after 4 hrs; type: functional
[22] = Effect on PLAU level in human MV4-11 cells assessed as fold change at 100 nM measured after 4 hrs; type: functional
[23] = Effect on ZFP36L2 level in human MV4-11 cells assessed as fold change at 100 nM measured after 4 hrs; type: functional
[24] = molecular target: Protein cereblon (Homo sapiens) (UniProt Q96SW2); assay: Binding affinity to CRBN (unknown origin)
[25] = molecular target: T2, Protein cereblon/Bromodomain-containing protein 3 (Homo sapiens); assay: PROTAC activity at CRBN/Hibit-tagged CRISPR BRD3 (unknown origin) expressed in HEK293 cells co-expressing LgBiT assessed as degradation of BRD3 by […] glo-max assay; type: cell-based
[26] = Effect on BRD2 level in human MV4-11 cells assessed as fold change at 100 nM measured after 4 hrs; type: functional
[27] = molecular target: T3, Protein cereblon/Bromodomain-containing protein 4; assay: PROTAC activity at CRBN/Hibit-tagged CRISPR BRD4 (unknown origin) expressed in HEK293 cells co-expressing LgBiT assessed as degradation of BRD4 measured after 18 to 24 hrs by […] glo-max assay; type: cell-based; details: time 18-24 hrs
[28] = molecular target: T3, Protein cereblon/Bromodomain-containing protein 4; assay: PROTAC activity at CRBN/Hibit-tagged BRD4 (unknown origin) expressed in HEK293 cells co-expressing LgBiT assessed as degradation of BRD4 incubated for 24 hrs by […] glo-max assay relative to control; type: cell-based
[29] = Effect on BRD3 level in human MV4-11 cells assessed as fold change at 100 nM measured after 4 hrs; type: functional
[30] = Effect on NOP53 level in human MV4-11 cells assessed as fold change at 100 nM measured after 4 hrs; type: functional
[31] = test system: HD-MB03; assay: Cytotoxicity against human HD-MB03 cells assessed as reduction in cell viability incubated for 72 hrs by cell-titer glo assay; type: functional, cell-based; details: HD-MB03, 72 h
[32] = molecular target: T1, Protein cereblon/Bromodomain-containing protein 2 (Homo sapiens); assay: PROTAC activity at CRBN/Hibit-tagged CRISPR BRD2 (unknown origin) expressed in HEK293 cells coexpressing LgBiT assessed as degradation of BRD2 measured after 10 to 14 hrs by […] glo-max assay; type: cell-based; details: time 10-14 hrs
[33] = Stability in mouse plasma assessed as half life by UPLC-MS/MS analysis; type: ADME, cell-free
[34] = molecular target: T3, Protein cereblon/Bromodomain-containing protein 4; assay: PROTAC activity at CRBN/Hibit-tagged CRISPR BRD4 (unknown origin) expressed in HEK293 cells co-expressing LgBiT assessed as degradation of BRD4 by […] glo-max assay; type: cell-based
[35] = Effect on NSA2 level in human MV4-11 cells assessed as fold change at 100 nM measured after 4 hrs; type: functional
[36] = molecular target: T3, Protein cereblon/Bromodomain-containing protein 4; assay: PROTAC activity at CRBN/Hibit-tagged BRD4 (unknown origin) expressed in HEK293 cells co-expressing LgBiT assessed as degradation rate incubated for 24 hrs by […] glo-max assay; type: cell-based
[37] = Effect on RNF166 level in human MV4-11 cells assessed as fold change at 100 nM measured after 4 hrs; type: functional
[38] = Effect on ZBTB21 level in human MV4-11 cells assessed as fold change at 100 nM measured after 4 hrs; type: functional
[39] = Kinetic aqueous solubility of the compound at pH 7.4; type: physicochemical; details: read-out: Kinetic_solubility
[40] = Effect on CCNF level in human MV4-11 cells assessed as fold change at 100 nM measured after 4 hrs; type: functional
[41] = Cmax in female CD1 mouse at 10 mg/kg, po measured upto 24 hrs by LC-MS/MS analysis; type: ADME, organism-based; details: in vivo
[42] = Downregulation of BRD4 protein level in human MV4-11 cells at 100 nM incubated for 4 hrs relative to control; type: functional
[43] = Effect on BRD4 level in human MV4-11 cells assessed as fold change at 100 nM measured after 4 hrs; type: functional
[44] = Effect on PLK1 level in human MV4-11 cells assessed as fold change at 100 nM measured after 4 hrs; type: functional
[45] = Effect on MCL1 level in human MV4-11 cells assessed as fold change at 100 nM measured after 4 hrs; type: functional
[46] = Chemical stability in human HD-MB03 cell culture media at 400 uM measured upto 72 hrs by UPLC analysis; type: physicochemical
[47] = Chemical stability in human MV4-11 cell culture media at 400 uM measured upto 72 hrs by UPLC analysis; type: physicochemical

With `Cc1sc2c(c1C)C(c1ccc(Cl)cc1)=N[C@@H](CC(=O)N1CCC(CN3CCN(c4ccc5c(c4)C(=O)N(C4CCC(=O)NC4=O)C5=O)CC3)CC1)c1nnc(C)n1-2` (stereo partly drawn) the “fold change (FC)” value [1] was -0.9, the “fold change (FC)” value [2] was -1.24 and the Activity [3] was > 95%. The Activity [4] was “Active”, the DC50 [5] was 1.08 nM and the AUC(0-t) at 24 h [6] was 3320 ng·h/mL. The “fold change (FC)” value [7] was -1.73, the half-life [8] was 0.16 h and the Activity [9] was > 90%. The IC50 [10] was 0.82 nM, the Activity [11] was > 95% and the “fold change (FC)” value [12] was 1.91. For the same compound, the “fold change (FC)” value [13] was -1, the Papp at 1 h [14] was 0.79 ×10⁻⁶ cm/s and the “fold change (FC)” value [15] was -1.29. For the same compound, the Activity [16] was “Active”, the Activity [17] was 90% and the Activity [18] was “Non-toxic”. The Activity [19] was “Active”, the Activity [20] was 90% and the “fold change (FC)” value [21] was -0.95. The “fold change (FC)” value [22] was -1.1, the “fold change (FC)” value [23] was -1.07 and the Activity [24] was “Active”. For the same compound, the Activity [25] was “Active”, the “fold change (FC)” value [26] was -3.3 and the Activity [27] was “Active”. The Emax [28] was 95.5%, the “fold change (FC)” value [29] was -4.09 and the “fold change (FC)” value [30] was -0.88. The IC50 [31] was 9.29 nM, the Activity [32] was “Active” and the half-life [33] was 17.8 h. The Activity [34] was “Active”, the “fold change (FC)” value [35] was -1.1 and the Activity [36] was 0.204 fRLU/hr. The “fold change (FC)” value [37] was -1.26, the “fold change (FC)” value [38] was -0.06 and the solubility kinetic [39] was 10.5 µM (≈ 8.64 µg/mL). The “fold change (FC)” value [40] was -1.64, the Cmax [41] was 1160 ng/mL and the Activity [42] was 90%. For the same compound, the “fold change (FC)” value [43] was -4.11, the “fold change (FC)” value [44] was -0.79 and the “fold change (FC)” value [45] was -1.17.

In the case of `Cc1sc2c(c1C)C(c1ccc(Cl)cc1)=N[C@@H](CC(=O)N1CCC(CN3CCN(c4ccc(N5CCC(=O)NC5=O)cc4)CC3)CC1)c1nnc(C)n1-2`, the “fold change (FC)” value [1] is reported as -0.7, the “fold change (FC)” value [2] is reported as -1.16 and the DC50 [5] is reported as 2.74 nM. For the same compound, the AUC(0-t) at 24 h [6] was 1420 ng·h/mL, the “fold change (FC)” value [7] was -1.21 and the half-life [8] was 1.42 h. The IC50 [10] was 0.66 nM, the “fold change (FC)” value [12] was 1.65 and the “fold change (FC)” value [13] was -1. The Papp at 1 h [14] was 0.29 ×10⁻⁶ cm/s, the “fold change (FC)” value [15] was -2.09 and the Activity [19] was “Active”. For the same compound, the “fold change (FC)” value [21] was -0.74, the “fold change (FC)” value [22] was -0.89 and the “fold change (FC)” value [23] was -0.91. The Stability [46] was “Stable”, the “fold change (FC)” value [26] was -2.79 and the Emax [28] was 46.4%. For the same compound, the Stability [47] was “Stable”, the “fold change (FC)” value [29] was -2.99 and the “fold change (FC)” value [30] was -0.72. The IC50 [31] was 15.1 nM, the half-life [33] was 16.5 h and the “fold change (FC)” value [35] was -0.85. The Activity [36] was 0.047 fRLU/hr, the “fold change (FC)” value [37] was -0.3 and the “fold change (FC)” value [38] was -0.1. For the same compound, the solubility kinetic [39] was 72.5 µM (≈ 54.7 µg/mL), the “fold change (FC)” value [40] was -0.89 and the Cmax [41] was 345 ng/mL. The “fold change (FC)” value [43] was -2.92, the “fold change (FC)” value [44] was -0.67 and the “fold change (FC)” value [45] was -1.01.
